Reference: the supplement of paper PMC8882468

Tests used:
Assay in all cases: CTG-3D luminescence at 96 h relative to day-0 seeding control (ratio to day 0); higher = more growth / less cytotoxicity; PDxO 3D drug screen, 96 h, CTG-3D normalised to day-0 seeding control.
[1] = system: HCI-008 (organoid from a HER2-enriched breast cancer xenograft)
[2] = system: HCI-015 (organoid from a triple-negative breast cancer xenograft)
[3] = system: HCI-005.E2 (organoid from a breast cancer xenograft with a HER2-positive history)
[4] = system: HCI-016 (organoid from a triple-negative breast cancer xenograft)
[5] = system: HCI-001 (organoid from a triple-negative breast cancer xenograft)

NC1(C(=O)N[C@@H](CCO)c2ccc(Cl)cc2)CCN(c2nc[nH]c3nccc2-3)CC1 [capivasertib]
CTG-3D luminescence at 96 h
Conditions | 12.5 pM | 0.00025 µM | 0.005 µM | 0.1 µM | 1 µM | 10 µM | 100 µM | 625 fM
[1], days in culture: 228 | 1.6 | 2.11 | 1.54 | 0.955 | 0.441 | 0.222 | 0.155 | 1.76
[1], days in culture: 244 | 1.6 | 1.98 | 1.87 | 1.34 | 0.546 | 0.415 | 0.392 | 2.08
[2], days in culture: 172 | 2.34 | 2.2 | 2.33 | 1.49 | 1.2 | 0.92 | 0.424 | 2.15
[2], days in culture: 191 | 2.07 | 1.39 | 1.53 | 1.06 | 1.24 | 0.533 | 0.257 | 1.27
[2], days in culture: 218 | 1.47 | 1.49 | 1.11 | 1.59 | 0.974 | 0.878 | 0.315 | 1.71
[4], days in culture: 153 | 3.06 | 1.93 | 2.64 | 2.32 | 2.43 | 1.43 | 0.426 | 2.85
[4], days in culture: 172 | 2.38 | 1.35 | 1.88 | 1.56 | 1.72 | 1.44 | 0.453 | 1.75
[4], days in culture: 190 | 1.81 | 1.24 | 1.5 | 0.925 | 1.13 | 1.1 | 0.565 | 1.47
[4], days in culture: 199 | 1.58 | 1.48 | 1.5 | 1.6 | 1.44 | 0.914 | 0.407 | 1.79
[5], days in culture: 240 | 1.55 | 0.986 | 1.1 | 0.601 | 0.604 | 0.407 | 0.382 | 1.02
[5], days in culture: 260 | 2.26 | 1.47 | 1.9 | 1.32 | 0.652 | 0.532 | 0.449 | 1.71
[5], days in culture: 269 | 1.69 | 1.5 | 1.82 | 1.34 | 0.734 | 0.758 | 0.593 | 1.71
[5], days in culture: 327 | 1.71 | 1.3 | 1.7 | 1.35 | 0.84 | 0.552 | 0.71 | 1.81
[5], days in culture: 346 | 1.49 | 1.36 | 1.35 | 1 | 0.937 | 0.678 | 0.809 | 1.33
[5], days in culture: 364 | 1.6 | 1.21 | 1.21 | 0.928 | 0.847 | 0.605 | 0.375 | 1.47

[3]
Conditions | CTG-3D luminescence at 96 h
12.5 pM | 1.64
0.00025 µM | 1.67
0.005 µM | 1.86
0.1 µM | 2.16
1 µM | 1.02
10 µM | 0.59
100 µM | 0.467
625 fM | 1.73

CC[C@H](NC(=O)[C@H](C)NC)C(=O)N1C[C@@H](O)C[C@H]1Cc1c(-c2[nH]c3cc(F)ccc3c2C[C@@H]2C[C@H](O)CN2C(=O)[C@H](CC)NC(=O)[C@H](C)NC)[nH]c2cc(F)ccc12 [birinapant]
CTG-3D luminescence at 96 h
Conditions | 12.5 pM | 0.00025 µM | 0.005 µM | 0.1 µM | 1 µM | 10 µM | 100 µM | 625 fM
[1], days in culture: 228 | 1.3 | 1.73 | 0.611 | 0.11 | 0.147 | 0.206 | 0.162 | 1.43
[1], days in culture: 244 | 1.27 | 1.82 | 1.05 | 0.549 | 0.521 | 0.713 | 0.51 | 2.04
[2], days in culture: 172 | 2.01 | 1.64 | 0.598 | 0.172 | 0.485 | 0.234 | 0.0277 | 1.3
[2], days in culture: 191 | 0.803 | 0.19 | 0.16 | 0.126 | 0.32 | 0.224 | 0.0253 | 0.41
[2], days in culture: 218 | 1.68 | 0.775 | 0.248 | 0.111 | 0.125 | 0.185 | 0.0267 | 1.8
[4], days in culture: 153 | 2.99 | 2.23 | 2.64 | 2.39 | 2.94 | 2.86 | 0.41 | 2.37
[4], days in culture: 172 | 2.25 | 1.67 | 1.82 | 1.23 | 1.56 | 1.24 | 0.122 | 1.58
[4], days in culture: 190 | 1.66 | 1.27 | 1.52 | 1.09 | 1.38 | 1.36 | 0.309 | 0.99
[4], days in culture: 199 | 1.54 | 1.36 | 1.44 | 1.52 | 1.54 | 1.23 | 0.204 | 1.7
[5], days in culture: 240 | 1.73 | 1.11 | 0.766 | 1.19 | 1.35 | 0.911 | 0.0991 | 1.19
[5], days in culture: 260 | 2.4 | 0.757 | 1.95 | 1.48 | 1.34 | 1.44 | 0.312 | 1.51
[5], days in culture: 269 | 1.5 | 1.67 | 1.54 | 1.87 | 1.68 | 2.3 | -0.0177 | 1.65
[5], days in culture: 327 | 1.48 | 1.44 | 1.63 | 1.67 | 1.34 | 1.26 | 0.695 | 1.57
[5], days in culture: 346 | 1.48 | 1.48 | 1.12 | 1.08 | 1.35 | 1.42 | 1.37 | 1.14
[5], days in culture: 364 | 1.38 | 1.05 | 1.4 | 1.27 | 1.07 | 1.32 | 1.04 | 1.5

[3]
Conditions | CTG-3D luminescence at 96 h
12.5 pM | 1.74
0.00025 µM | 1.66
0.005 µM | 1.74
0.1 µM | 1.77
1 µM | 1.79
10 µM | 1.51
100 µM | 1.29
625 fM | 1.76
